Test system: small cuts and/or abrasions
Test: topical application of epinephrine compositions to small cuts and/or abrasions
Format: in vivo
Settings: compositions containing from about 0.001 mg/ml to about 2.5 mg/ml, applied topically
[1] = compared with wounds untreated or treated with conventional methods

Compound: CNC[C@H](O)c1ccc(O)c(O)c1 [epinephrine]
- scab formation on treated skin areas (assessed visually): no scabs were formed visually
- control of bleeding [1]: faster control of bleeding
- healing of small cuts and/or abrasions [1]: promoted healing of small cuts and/or abrasions
